Reference: patent US20220160686A1, “MACROCYCLIC AZOLOPYRIDINE DERIVATIVES AS EED AND PRC2 MODULATORS” (Fulcrum Therapeutics, Inc., priority 2019, published 2022)
pEC50: −log10 of the molar value.

Legend:
[1] = system: HUDEP2 cells; assay: Fetal hemoglobin (HbF) upregulation assay of HUDEP2 cells; type: cell-based
Procedure: HUDEP2 cells were maintained and passaged every 2-3 days by seeding 300,000 viable cells/mL in a culture flask containing HUDEP2 Growth Media comprised of StemSpan SFEM (Stemcell Technologies #09650), 50 ng/mL human stem cell factor (Stemcell Technologies #78062.2), 3 IU/mL erythropoietin (ThermoFisher #PHC2054), 1 μM dexamethasone (Sigma #D2915), and […] doxycycline (Sigma #D3072). HUDEP2 cells were differentiated towards erythroid lineage by seeding at 25,000 viable cells/well in 96-well V-Bottom plates (Corning #3894) containing 135 μL HUDEP2 Differentiation Media comprised of Iscove's Modified Dulbecco's Medium (Stemcell Technologies #36150), 1% L-glutamine (ThermoFisher #25030081), 2% penicillin-streptomycin (ThermoFisher #15140122), 330 μg/mL holo-human transferrin (Sigma #T0665), 2 IU/mL heparin (Stemcell Technologies #07980), 10 μg/mL recombinant human insulin (Sigma #91077C), 3 IU/mL erythropoietin (ThermoFisher #PHC2054), 100 ng/mL human stem cell factor (Stemcell Technologies #78062.2), and 4% fetal bovine serum (ThermoFisher #A3160502). Chemical probes for treatment were resuspended in 100 μL of Iscove's Modified Dulbecco's Medium (Stemcell Technologies #36150) to a 10× concentration, and 15 μL of 10× concentrated chemical probes were added to each well for a total well volume of 150 μL. HUDEP2 cells were left to incubate at 37° C., 85% relative humidity, and 5% CO2 for 3 days. On Day 3, assay plates containing HUDEP2 cells were centrifuged at 500×g for 5 minutes. After centrifugation cells were pelleted to the bottom of the well, and 100 μL of media aspirated from the well without disturbing the cells. Then 90 μL of fresh HUDEP2 Differentiation Media and 10 μL of 10× concentrated chemical probes were added back each well. For the H3K27me3 assay, cells were harvested on Day 4 of treatment. The HUDEP2 cells were centrifuged at 500×g for 5 minutes and all media was aspirated from the well. Then 150 μL of phosphate buffered saline (ThermoFisher #10010023) was added to each well to resuspend the cells. Finally, 50 μL of the HUDEP2 cell suspension from each well was transferred to a poly-d-lysine coated 384-well plate (Corning Cat #356697) and centrifuged at 1000×g for 5 minutes before proceeding to ICC Fix and Stain Protocol. Assay plates for the HbF assay were returned to the incubator until Day 5, where the media was exchanged and chemical probes added exactly as on Day 3. On Day 7 of the HbF assay, the HUDEP2 cells were harvested in the same manner as described for the H3K27me3 assay before proceeding to ICC Fix and Stain Protocol.
The Fix and Stain Protocol was the same for HEK293T, HUDEP2, and Primary CD34+ cell assays except the specific primary and secondary antibodies used for detection. Following 4 days of compound treatment, the respective plates were washed once with 25 μL of PBS (ThermoFisher #10010023) and fixed with 25 μL of 4% paraformaldehyde (ThermoFisher #28908) for 10 minutes at room temperature. The plates were then washed three times with 25 μL of PBS. Subsequent to that, the cells were permeabilized and blocked for 1 hour at room temperature in 25 μL of Perm/Block buffer comprised of IX PBS, 1% bovine serum albumin (ThermoFisher #A3294), 10% fetal bovine serum (ThermoFisher #A3160502), 0.3M glycine (Sigma #G7126), and 0.1% tween-20 (Sigma #P7949). This was followed by additional washing (three times) of the plates with 25 μL of 0.1% tween in PBS.
Plates for the HbF assay were treated similarly as described above except that HbF Primary Antibody (ThermoFisher #MHFH01-4) diluted 1:40 in 0.1% tween-20 in PBS and Hoescht (ThermoFisher #H3570) diluted 1:2000 in 0.1% tween-20 in PBS were used for detection.
(§1) The plates were then scanned on the CX7 at 10× magnification, and 9 images were acquired per well. The software algorithm then identified nuclei and calculated a total nuclei count using the Hoechst staining on channel 1. […]

[2] = system: Human Mobilized Peripheral Blood Primary CD34+ cells; assay: Fetal hemoglobin (HbF) upregulation assay of CD34+ cells; type: cell-based
Procedure: Human Mobilized Peripheral Blood Primary CD34+ cells were expanded from thaw by seeding 100,000 viable cells/mL in a culture flask containing CD34+ Expansion Media comprised of StemSpan SFEMII (Stemcell Technologies #09655), 1% erythroid expansion supplement (Stemcell Technologies #02692), and 1 μM dexamethasone (Sigma #D2915). The cells were supplemented by adding an additional IX culture volume of CD34+ Expansion Media on Day 3 after thaw. After 7 days of expansion, Primary CD34+ cells were differentiated towards erythroid lineage by seeding at 15,000 viable cells/well in 96-well V-Bottom plates (Corning #3894) containing 135 μL CD34+ Differentiation Media comprised of StemSpan SFEMII (Stemcell Technologies #09655), 3% normal human serum (Sigma #H4522), 3 IU/mL erythropoietin (ThermFisher #PHC2054). Chemical probes for treatment were resuspended in 100 μL of Iscove's Modified Dulbecco's Medium (Stemcell Technologies #36150) to a 10× concentration, and 15 μL of 10× concentrated chemical probe was added to each well for a total well volume of 150 μL. Primary CD34+ cells were left to incubate at 37° C., 85% relative humidity, and 5% C02 for 3 days. On Day 3, assay plates containing Primary CD34+ cells were centrifuged at 500×g for 5 minutes. After centrifugation cells were pelleted to the bottom of the well, and 100 μL of media aspirated from the well without disturbing the cells. Then 90 μL of fresh CD34+ Differentiation Media and 10 μL of 10× concentrated chemical probes were added back each well. For the H3K27me3 assay, cells were harvested on Day 4 of treatment. The Primary CD34+ cells were centrifuged at 500×g for 5 minutes and all media was aspirated from the well. Then 150 μL of phosphate buffered saline (ThermoFisher #10010023) was added to each well to resuspend the cells. Finally, 50 μL of the Primary CD34+ cell suspension from each well was transferred to a poly-d-lysine coated 384-well plate (Corning Cat #356697) and centrifuged at 1000×g for 5 minutes before proceeding to ICC Fix and Stain Protocol. Assay plates for the HbF assay were returned to the incubator until Day 5, where the media was exchanged and chemical probes added exactly as on Day 3. On Day 7 of the HbF assay, the Primary CD34+ cells were harvested in the same manner as described for the H3K27me3 assay before proceeding to ICC Fix and Stain Protocol. […]
as §1, with “1. After nuclei were identified, the algorithm calculated the average nuclear intensity of the H3K27me3 or HbF staining on channel 2.” for “1.”

Row | SMILES | pEC50 [1] | pEC50 [2]
1 | COc1ncc(-c2cc3c(n4cnnc24)NCc2c(F)ccc4c2[C@H](CO4)CO3)cn1 [Example 30] | 6.30 to 7.00 | –
2 | Cn1nccc1-c1cc2c(n3cnnc13)NCc1c(F)ccc3c1C(CO3)CO2 (stereo not shown) [Example 17] | > 7.60 | > 7.60
3 | Cc1cn(-c2cc3c(n4cnnc24)NCc2c(F)ccc4c2[C@@H](CO4)CO3)cn1 [Compound 15, (S)-12-fluoro-4-(4-methyl-1H-imidazol-1-yl)-7a,8,13,14-tetrahydro-7H-[1,2,4]triazolo[4′,3′:1,6]pyrido[3,2-b]benzofuro[4,3-fg][1,4]oxazonine] | – | 6.30 to 7.00
4 | Cc1ncc(-c2cc3c(n4cnnc24)NCc2c(F)ccc4c2[C@@H](CO4)CO3)c(C)n1 [Compound 13, (S)-4-(2,4-dimethylpyrimidin-5-yl)-12-fluoro-7a,8,13,14-tetrahydro-7H-[1,2,4]triazolo[4′,3′:1,6]pyrido[3,2-b]benzofuro[4,3-fg][1,4]oxazonine] | 7.00 to 7.30 | –
5 | CS(=O)(=O)c1ccc(-c2cc3c(n4cnnc24)NCc2c(F)ccc4c2C(CO4)CO3)cc1 (stereo not shown) [Example 36] | 7.00 to 7.30 | –
6 | Cc1cc(C#N)ccc1-c1cc2c(n3cnnc13)NCc1c(F)ccc3c1[C@H](CO3)CO2 [Example 49] | 7.00 to 7.30 | –
7 | Fc1cncnc1-c1cc2c(n3cnnc13)NCc1c(F)ccc3c1[C@@H](CO3)CO2 [Compound 164, (S)-12-fluoro-4-(5-fluoropyrimidin-4-yl)-7a,8,13,14-tetrahydro-7H-[1,2,4]triazolo[4′,3′:1,6]pyrido[3,2-b]benzofuro[4,3-fg][1,4]oxazonine] | – | > 7.60
8 | Cn1nc(C(F)(F)F)cc1-c1cc2c(n3cnnc13)NCc1c(F)ccc3c1[C@H](CO3)CO2 [Example 115] | > 7.60 | 7.00 to 7.30
